This is an account of results in US10526319B2, “Halogenated quinazolin-THF-amines as PDE1 inhibitors” (H. Lundbeck A/S, priority 2014, dated 2020).

pIC50: −log10 of the molar value.

As a reminder, the pIC50 is the IC50 on a negative log10 scale, so that one unit is a factor of ten.

What all share (format): biochemical
Settings in all cases: 15 nM tritium labelled cAMP, 1 h at room temperature

One assay deals with PDE1A (Homo sapiens, UniProt P54750). As to the kind of experiment: PDE1 inhibition assay (SPA, tritium labelled cAMP), PDE1A. As for the experimental part:
(§1) PDE1A, PDE1B and PDE1C assays were performed as follows: the assays was performed in 60 μL samples containing a fixed amount of the PDE1 enzym1 (sufficient to convert 20-25% of the cyclic nucleotide substrate), a buffer (50 mM HEPES pH 7.6; 10 mM MgCl2; 0.02% Tween20), 0.1 mg/ml BSA, 15 nM tritium labelled cAMP and varying amounts of inhibitors. Reactions were initiated by addition of the cyclic nucleotide substrate, and reactions were allowed to proceed for 1 h at room temperature before being terminated through mixing with 20 μL (0.2 mg) yttrium silicate SPA beads (PerkinElmer). The beads were allowed to settle for 1 h in the dark before the plates were counted in a Wallac 1450 Microbeta counter. The measured signals were converted to activity relative to an uninhibited control (100%) and IC50 values were calculated using XlFit (model 205, IDBS).

For a further assay, the target named is PDE1B (Homo sapiens, UniProt Q01064). As to the kind of experiment: PDE1 inhibition assay (SPA, tritium labelled cAMP), PDE1B. The method, then:
as §1

The next assay has as its target PDE1C (Homo sapiens, UniProt Q14123). As to the kind of experiment: PDE1 inhibition assay (SPA, tritium labelled cAMP), PDE1C. As for the experimental part: as §1

Sequence of PDE1C (Q14123 whole entry): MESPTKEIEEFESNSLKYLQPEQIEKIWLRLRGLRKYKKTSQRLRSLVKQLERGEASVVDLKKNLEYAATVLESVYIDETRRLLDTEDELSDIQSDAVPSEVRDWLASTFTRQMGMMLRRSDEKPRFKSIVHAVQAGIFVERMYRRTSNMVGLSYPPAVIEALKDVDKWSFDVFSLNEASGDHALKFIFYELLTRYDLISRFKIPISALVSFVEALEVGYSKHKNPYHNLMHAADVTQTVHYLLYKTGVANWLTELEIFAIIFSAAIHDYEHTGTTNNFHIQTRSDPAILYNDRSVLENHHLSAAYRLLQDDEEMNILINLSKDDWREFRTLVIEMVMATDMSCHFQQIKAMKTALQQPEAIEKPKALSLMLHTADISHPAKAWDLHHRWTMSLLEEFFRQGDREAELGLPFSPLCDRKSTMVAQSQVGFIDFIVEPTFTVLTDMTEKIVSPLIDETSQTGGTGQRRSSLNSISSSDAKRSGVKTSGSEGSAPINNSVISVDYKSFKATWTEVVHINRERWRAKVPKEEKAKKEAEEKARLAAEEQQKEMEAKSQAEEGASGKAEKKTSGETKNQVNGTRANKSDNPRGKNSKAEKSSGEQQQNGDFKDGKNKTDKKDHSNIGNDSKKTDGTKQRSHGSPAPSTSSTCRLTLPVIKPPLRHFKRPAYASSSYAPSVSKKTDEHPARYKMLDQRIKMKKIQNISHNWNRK
Sequence of PDE1B (Q01064 whole entry): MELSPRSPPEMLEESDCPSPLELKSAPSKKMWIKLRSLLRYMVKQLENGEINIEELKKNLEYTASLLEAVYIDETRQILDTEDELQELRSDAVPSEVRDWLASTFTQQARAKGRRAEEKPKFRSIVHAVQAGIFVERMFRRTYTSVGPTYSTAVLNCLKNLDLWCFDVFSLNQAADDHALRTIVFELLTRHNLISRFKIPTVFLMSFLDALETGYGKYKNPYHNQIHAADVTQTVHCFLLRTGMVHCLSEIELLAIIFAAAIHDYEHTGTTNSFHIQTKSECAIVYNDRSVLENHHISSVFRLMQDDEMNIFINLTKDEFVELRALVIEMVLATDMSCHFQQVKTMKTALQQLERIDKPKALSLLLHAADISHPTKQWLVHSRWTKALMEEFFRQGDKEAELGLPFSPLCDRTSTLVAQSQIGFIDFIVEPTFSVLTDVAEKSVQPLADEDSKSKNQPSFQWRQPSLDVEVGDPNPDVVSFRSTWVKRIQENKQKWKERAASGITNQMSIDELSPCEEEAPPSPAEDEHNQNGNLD
Sequence of PDE1A (P54750 whole entry): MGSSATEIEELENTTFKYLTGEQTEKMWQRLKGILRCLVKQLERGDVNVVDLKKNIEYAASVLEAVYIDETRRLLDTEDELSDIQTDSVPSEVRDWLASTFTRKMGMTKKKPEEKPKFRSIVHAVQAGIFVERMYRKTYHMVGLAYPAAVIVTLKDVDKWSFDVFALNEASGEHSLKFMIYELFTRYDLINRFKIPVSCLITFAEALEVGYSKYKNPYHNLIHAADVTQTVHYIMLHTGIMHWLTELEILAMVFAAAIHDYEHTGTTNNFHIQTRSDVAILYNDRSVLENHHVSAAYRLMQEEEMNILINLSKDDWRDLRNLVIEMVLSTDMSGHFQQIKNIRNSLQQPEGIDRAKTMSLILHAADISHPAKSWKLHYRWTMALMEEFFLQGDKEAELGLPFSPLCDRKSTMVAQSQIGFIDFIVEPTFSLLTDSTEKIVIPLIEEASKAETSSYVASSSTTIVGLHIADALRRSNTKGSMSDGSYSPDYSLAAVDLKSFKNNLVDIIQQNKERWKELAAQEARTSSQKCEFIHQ

Consider `COc1ccc2c(NC3(C)CCOC3)ncnc2c1F` (single isomer, unassigned) [1 Stereoisomer 2], for which the negative logarithm of the IC50 (pIC50) at PDE1A is 6.60; against PDE1B, 7.19; on PDE1C it was 6.59.
For the compound `COc1ccc2c(N(C)C3CCOC3C)ncnc2c1Cl` (single isomer, unassigned) [14 Stereoisomer 3], the negative logarithm of the IC50 (pIC50) against PDE1A is 5.81; against PDE1B it was 6.31; against PDE1C, 6.70.
For `COc1ccc2c(N(C)C3CCOC3C)ncnc2c1Cl` (single isomer, unassigned) [14 Stereoisomer 4] the same measures were 6.55, 7.52 and 7.85.
`COc1ccc2c(N3CC[C@@H]4OCCC43)ncnc2c1Cl` (single isomer, unassigned) [9 Stereoisomer 2]: the figures for the negative-log IC50 (pIC50) on PDE1A, on PDE1B and on PDE1C were 5.65, 5.92 and 6.26, respectively.
In the case of `COc1ccc2c(N(C)C3(C)CCOC3C)ncnc2c1F` (single isomer, unassigned) [19 Stereoisomer 3], the pIC50 at PDE1A is 5.60; on PDE1B it was 6.38; against PDE1C, 5.92.
For `COc1ccc2c(N(C)C3(C)CCOC3C)ncnc2c1F` (single isomer, unassigned) [19 Stereoisomer 1] the same measures were 6.64, 7.49 and 7.07.
The corresponding values for `COc1ccc2c(N(C)C3CCOC3C)ncnc2c1F` (single isomer, unassigned) [18 Stereoisomer 3] are 6.70, 7.33 and 7.06.
The corresponding values for `COc1ccc2c(NC3CCOC3C)ncnc2c1F` (single isomer, unassigned) [3 Stereoisomer 4] are 6.22, 6.92 and 6.39.
`COc1ccc2c(N(C)C3(C)CCOC3)ncnc2c1F` (single isomer, unassigned) [15 Stereoisomer 1]: the figures for the pIC50 at PDE1A, against PDE1B and at PDE1C were 6.16, 6.96 and 6.49, respectively.
For `COc1ccc2c(N(C)C3CCOC3)ncnc2c1Cl` (single isomer, unassigned) [6 stereoisomer 1] the same measures were 5.74, 6.48 and 6.85.
The corresponding values for `COc1ccc2c(N(C)C3CCOC3C)ncnc2c1Cl` (single isomer, unassigned) [14 Stereoisomer 1] are 5.58, 6.29 and 6.70.
For `COc1ccc2c(N(C)C3CCOC3)ncnc2c1F` (single isomer, unassigned) [2 Stereoisomer 1] the same measures were 5.96, 6.52 and 5.89.
For the compound `COc1ccc2c(N(C)C3CCOC3)ncnc2c1Cl` (single isomer, unassigned) [6 stereoisomer 2], the pIC50 is 6.82 on PDE1A, 7.82 at PDE1B and 7.96 on PDE1C.
`COc1ccc2c(N(C)C3CCOC3C)ncnc2c1Cl` (single isomer, unassigned) [14 Stereoisomer 2]: the results for the pIC50 against PDE1A, against PDE1B and against PDE1C were 6.77, 7.74 and 8.00, respectively.
The corresponding values for `COc1ccc2c(NC3CCOC3C)ncnc2c1Cl` (single isomer, unassigned) [5 stereoisomer 1] are 6.52, 7.31 and 7.57.
For `COc1ccc2c(NC3CCOC3)ncnc2c1F` (single isomer, unassigned) [16 Stereoisomer 2] the same measures were 6.50, 7.09 and 6.64.
Compound `COc1ccc2c(N3CC[C@@H]4OCCC43)ncnc2c1Br` (single isomer, unassigned) [10 Stereoisomer 2] had a pIC50 on PDE1C of 6.68.
For the compound `COc1ccc2c(N(C)C3CCOC3)ncnc2c1F` (single isomer, unassigned) [2 Stereoisomer 2], the negative-log IC50 (pIC50) is 7.00 on PDE1A, 7.74 at PDE1B and 7.12 at PDE1C.
For `COc1ccc2c(NC3CCOC3C)ncnc2c1Cl` (single isomer, unassigned) [5 stereoisomer 4] the same measures were 6.35, 7.24 and 7.44.
The corresponding values for `COc1ccc2c(N(C)C3(C)CCOC3)ncnc2c1Cl` (single isomer, unassigned) [11 Stereoisomer 2] are 6.82, 7.51 and 7.82.
The corresponding values for `COc1ccc2c(N(C)C3CCOC3C)ncnc2c1F` (single isomer, unassigned) [18 Stereoisomer 4] are 6.29, 7.22 and 6.92.
As for `COc1ccc2c(N3CC[C@@H]4OCCC43)ncnc2c1F` (single isomer, unassigned) [8 Stereoisomer 1], the values for the pIC50 at PDE1A, against PDE1B and against PDE1C were 7.14, 7.68 and 7.22, respectively.
Turning to `COc1ccc2c(NC3(C)CCOC3)ncnc2c1Cl` (single isomer, unassigned) [7 stereoisomer 1], the pIC50 on PDE1A is 6.70; against PDE1B, 7.64; at PDE1C, 7.96.
For `COc1ccc2c(NC3(C)CCOC3C)ncnc2c1F` (single isomer, unassigned) [17 Stereoisomer 3] the same measures were 6.35, 7.00 and 6.41.
For `COc1ccc2c(NC3(C)CCOC3)ncnc2c1F` (single isomer, unassigned) [1 Stereoisomer 1] the same measures were 7.30, 8.00 and 7.55.
For `COc1ccc2c(NC3(C)CCOC3C)ncnc2c1F` (single isomer, unassigned) [17 Stereoisomer 2] the same measures were 7.14, 8.30 and 7.66.
As for `COc1ccc2c(N(C)C3(C)CCOC3)ncnc2c1Cl` (single isomer, unassigned) [11 Stereoisomer 1], the pIC50 was 6.53 against PDE1A, 7.19 at PDE1B and 7.48 against PDE1C.
Regarding `COc1ccc2c(N(C)C3CCOC3C)ncnc2c1F` (single isomer, unassigned) [18 Stereoisomer 1], the pIC50 was 5.76 at PDE1A, 6.29 against PDE1B and 5.96 on PDE1C.
The corresponding values for `COc1ccc2c(NC3CCOC3)ncnc2c1F` (single isomer, unassigned) [16 Stereoisomer 1] are 5.93, 6.37 and 5.92.
The corresponding values for `COc1ccc2c(NC3CCOC3C)ncnc2c1F` (single isomer, unassigned) [3 Stereoisomer 2] are 6.38, 7.06 and 6.59.
As to `COc1ccc2c(N3CC[C@@H]4OCCC43)ncnc2c1Br` (single isomer, unassigned) [10 Stereoisomer 1], the pIC50 against PDE1A is 6.83; on PDE1B, 7.31; on PDE1C, 7.96.
The corresponding values for `COc1ccc2c(N3CC[C@@H]4OCCC43)ncnc2c1Cl` (single isomer, unassigned) [9 Stereoisomer 1] are 6.81, 7.40 and 7.64.
